In experiment [1] the target is T1, TREK-1 (Mus musculus, UniProt P97438).
T1 sequence (P97438 1-426): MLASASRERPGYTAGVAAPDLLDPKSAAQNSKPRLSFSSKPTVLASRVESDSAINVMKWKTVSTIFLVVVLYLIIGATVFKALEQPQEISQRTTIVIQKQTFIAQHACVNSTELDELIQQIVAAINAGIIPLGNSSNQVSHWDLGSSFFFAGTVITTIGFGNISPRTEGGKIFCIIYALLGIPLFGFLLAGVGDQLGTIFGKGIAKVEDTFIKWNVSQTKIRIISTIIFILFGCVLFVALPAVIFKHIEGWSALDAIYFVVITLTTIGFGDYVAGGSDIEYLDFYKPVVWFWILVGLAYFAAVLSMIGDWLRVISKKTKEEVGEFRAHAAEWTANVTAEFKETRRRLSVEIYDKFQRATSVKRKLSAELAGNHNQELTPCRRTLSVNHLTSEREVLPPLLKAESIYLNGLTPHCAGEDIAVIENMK
The experiment can be described thus: Whole-cell patch-clamp on CA3 pyramidal neurons in hippocampus brain slices. The experiment is classed as cell-based. More on the design: a cellular network that endogenously expresses both TREK-1 and NTSR3/Sortilin; from tissue; host or cells: mouse hippocampal brain slices, CA3 pyramidal neurons. As to conditions: wild-type CA3 neurons, K+ blockers, 10 μM aa, n=12. Background: Patch clamp records ionic current or voltage across a cell membrane.

Experiment [2] has as its target T1, TREK-1. As to the kind of experiment: Whole-cell patch-clamp on cultured pyramidal neurons from hippocampus. Also on record: endogenous in cells; host or cells: primary hippocampal pyramidal neurons from newborn mice. The format is cell-based. The conditions noted are these: 10 μM, K+ blockers, at -50 mV, 7 out of 70 neurons. As for the experimental part: A, Cultured pyramidal neuron from hippocampus, with on top, the patch-clamp pipette. Neurons were chosen according to their morphology. B, Current recorded in response to ramps of potential obtained in the various conditions indicated (aa: arachidonic acid: 10 μM, Spadin: 1[…]μM, Fluoxetine: 20 μM). Neurons were recorded in the whole-cell configuration of the patch-clamp technique. In voltage-clamp, ramps of potential from −90 mV to 70 mV were applied every 10 sec. The % variation of the current amplitude was always measured at −50 mV. The currents were recorded in response to such ramps in control conditions and in the presence of a cocktail of potassium blockers suitable to isolate the TREK currents (10 mM tetraethyl ammonium (TEA), 3 mM 4-aminopyridine (4-AP), 50 nM charybdotoxin, 10 μM glibenclamide, 100 nM apamin). […] The blocks were reversible. C, Time course of spadin and fluoxetine effects. Applications are indicated by the horizontal bars.
Cortical neurons were prepared from 14 old mouse embryos whereas hippocampal neurons were prepared from new born mice. Briefly, dissected brain areas were dissociated and neurons were plated on polylysine-treated 35 or 60 mm dishes and maintained in culture in Neurobasal medium supplemented with B27, Glutamax and antibiotics for 2 to 3 weeks before to be used for electrophsysiological or biochemical experiments.

Experiment [3] relates to mice. As to the kind of experiment: Staircase test. As to conditions: spadin i.p. 10^-5 M, diazepam i.p. 0.5 mg/kg. The format is in vivo, mouse. As to the method:
The apparatus comprised an enclosed staircase consisted of five identical steps (2.5 cm in height×11 cm in width×7.5 cm in length), each made of black plastic. The height of the walls was constant (12.5 cm above the stairs) along the entire length of the staircase. Each mouse was placed individually on the floor of the staircase with its back to the staircase. A step was considered climbed only if the mouse placed all four paws on it. Rearing was recorded when the mouse rose on its hind legs either on the step or against the wall. The number of steps ascended and the number of rearings made in a 3-min period were recorded. Results were expressed as ratio of rearing/step numbers.

Experiment [4] concerns mice. The experiment can be described thus: Elevated plus-maze. The experiment is classed as in vivo, mouse. As to conditions: spadin i.p. 10^-5 M, diazepam i.p. 0.5 mg/kg. From the text:
Elevated plus-maze. The apparatus consisted of two open and two enclosed arms of the same size (45×5 cm) with walls 15 cm high. The arms, constructed of black acrylic, radiate from a common central platform (5×5 cm) to form a plus sign. Open arms were arranged opposite to one another, as were closed arms. The maze was elevated to a height of 45 cm above floor level. Each mouse was placed in the central platform facing one of the open arms. The number of entries into the open and closed arms and the time spent on the open and closed arms were recorded during a 5 min test period. Time spent in the unprotected open arms as well as the number of entries in open arms in relation to the total of arm entries are used as experimental indices of anxiety.

Experiment [5] relates to mice. The experiment can be described thus: Light/dark exploration. The experiment is classed as in vivo, mouse. As to conditions: spadin i.p. 10^-5 M, diazepam i.p. 0.5 mg/kg. As to the method:
The apparatus consisted of a cage (25×40×20 cm) divided into two compartments by a black partition containing a small opening that allows mouse to move from one compartment to the other. One compartment, comprising […] of the surface area, was made of white plastic and was brightly illuminated. The adjoining smaller compartment was black and dark. Mice were placed in the white compartment and allowed to move freely between the two chambers for 5 minutes. The number of transitions between the two compartments, time spent in the white chamber, and latency to the first transition were recorded. Mice tend to avoid the white compartment. Thus the measures of exploration in this area (time and entrances) were used as experimental indices of anxiety.

The target of a further experiment is T2, NTSR3/Sortilin (Homo sapiens, UniProt Q99523).
T2 sequence (Q99523 78-831): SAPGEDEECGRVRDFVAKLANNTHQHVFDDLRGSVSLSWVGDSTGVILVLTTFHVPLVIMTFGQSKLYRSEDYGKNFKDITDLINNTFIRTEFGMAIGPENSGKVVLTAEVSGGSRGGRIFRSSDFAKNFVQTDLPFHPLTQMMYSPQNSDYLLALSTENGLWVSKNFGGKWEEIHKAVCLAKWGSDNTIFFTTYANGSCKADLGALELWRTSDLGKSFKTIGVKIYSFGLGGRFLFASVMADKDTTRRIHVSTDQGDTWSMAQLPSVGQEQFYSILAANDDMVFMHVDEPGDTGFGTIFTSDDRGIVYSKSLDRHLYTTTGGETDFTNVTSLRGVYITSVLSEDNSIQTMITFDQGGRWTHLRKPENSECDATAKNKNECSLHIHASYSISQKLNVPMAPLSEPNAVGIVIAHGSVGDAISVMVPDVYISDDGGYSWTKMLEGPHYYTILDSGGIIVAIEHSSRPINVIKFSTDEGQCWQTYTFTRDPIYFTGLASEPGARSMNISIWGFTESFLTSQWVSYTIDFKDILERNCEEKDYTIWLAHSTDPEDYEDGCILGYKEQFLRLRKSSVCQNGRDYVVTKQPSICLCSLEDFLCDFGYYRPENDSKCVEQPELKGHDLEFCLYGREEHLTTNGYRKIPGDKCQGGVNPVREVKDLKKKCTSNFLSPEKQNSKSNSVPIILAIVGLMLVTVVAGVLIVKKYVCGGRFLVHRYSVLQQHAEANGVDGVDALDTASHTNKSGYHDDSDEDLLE
As to conditions: cited from earlier work; for binding activity / affinity for NTSR3/Sortilin: structure-function studies [15].

Experiment [6] deals with TREK-1 channel (expressed by transfection in COS-7 cells). As to the kind of experiment: cell-based or functional assay.
The target in experiment [7] is T1, TREK-1. As to the kind of experiment: Whole-cell patch-clamp on TREK-1 transfected COS-7 cells. The conditions noted are these: 500 nM, 10 μM aa, at 0 mV, n=4. The format is cell-based. More on the design: GFP; expressed in transfected cells; host or cells: COS-7 (DEAE-dextran transfection). As to the method: All electrophysiological experiments were done on COS-7 cells seeded at a density of 20,000 cells/35-mm dish 24 h before transfection. Cells were transfected by the classical DEAE-dextran method with TREK-1-GFP plasmids (0.1 μg/μL). Cells were visualized 48-72 h after transfection using fluorescence.
The whole-cell patch-clamp technique was used to evaluate TREK-1 potassium channel current by using a RK 400 patch-clamp amplifier (Axon Instruments, U.S.A.), as previously described. Currents were lowpass filtered at 3 kHz, digitized at 10 kHz using a 12-bit analog-to-digital converter. […] The bath solution contained (in mM): 150 NaCl, 5 KCl, 3 MgCl2, 1 CaCl2, and 10 HEPES, adjusted to pH 7.4 with NaOH; the patch pipette solution contained (in mM): 155 KCl, 3 MgCl2, 5 EGTA, and 10 HEPES, adjusted to pH 7.2 with KOH. Cells were clamped at −80 mV and voltage changes were either applied by ramp (from −100 to 50 mV, 1 s in duration) or by step (from −100 to 40 mV, 1.5 s in duration). Cells were continuously superfused with a microperfusion system. The pipette capacitance was not subtracted from total membrane capacitance and there was no leak substraction. All experiments were done at room temperature (21° C. to 22° C.) and in the presence of a cocktail of potassium channel inhibitors (K^+ blockers: 10 mM tetraethyl ammonium (TEA), 3 mM 4-aminopyridine (4-AP), 50 nM charybdotoxin, 10 μM glibenclamide, 100 nM apamin).
Pclamp software was used to analyze currents recorded in the whole-cell mode measured at 0 mV. Results are expressed as means±SD. To obtain the IC50 value for dose-dependent inhibition, experimental data were fitted with a standard sigmoidal function.

Experiment [8] deals with NTSR3/Sortilin (endogenous, C13NJ microglial cell line). As to the kind of experiment: cell-based or functional assay.
Experiment [9] has as its target TREK-1 channel (expressed by transfection in COS-7 cells). As to the kind of experiment: competition with 0.2 nM 125I-spadin on TREK-1 transfected COS-7 cell homogenates, filtration.

We go through eight molecules from patent publication US20120322060A1, “DIAGNOSIS AND MONITORING TREATMENT OF PSYCHIATRIC DISEASES WITH SPADIN AND RELATED METHODS” (CENTRE NATIONAL DE LE RECHERCHE SCIENTIFIQUE - CNRS -, priority 2011, published 2012).

Like-named read-outs stand apart in the source and are kept apart here. No end group written: not given here.

Chain of TREK-1 channel (expressed by transfection in COS-7 cells) (O95069 whole entry): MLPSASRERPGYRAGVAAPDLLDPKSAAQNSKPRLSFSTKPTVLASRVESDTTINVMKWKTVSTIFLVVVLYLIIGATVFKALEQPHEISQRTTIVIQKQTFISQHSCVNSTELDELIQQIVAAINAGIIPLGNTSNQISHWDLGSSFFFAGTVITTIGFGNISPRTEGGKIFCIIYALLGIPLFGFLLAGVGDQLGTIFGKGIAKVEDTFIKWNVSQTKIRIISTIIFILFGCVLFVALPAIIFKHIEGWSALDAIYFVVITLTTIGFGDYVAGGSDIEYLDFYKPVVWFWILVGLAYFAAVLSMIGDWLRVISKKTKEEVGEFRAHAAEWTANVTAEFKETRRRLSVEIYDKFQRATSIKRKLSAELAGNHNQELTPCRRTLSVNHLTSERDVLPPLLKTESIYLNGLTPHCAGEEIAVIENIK

With `CCCCC/C=C\C/C=C\C/C=C\C/C=C\CCCC(=O)O` [arachidonic acid, Arachidonic acid], the “increase of amplitude of the remaining current” value on TREK-1 [1] is 23.3+4.8%. Moreover, the “increase of remaining current” value on TREK-1 [2] is given as “about 50%”.

For the molecule `CN1C(=O)CN=C(c2ccccc2)c2cc(Cl)ccc21` [diazepam, reference compound], the rearing/step numbers ratio result in the experiment on mice [3] is recorded as “decrease of the rearing/step numbers ratio”. Moreover, the “time spent in the open arms” value with mice [4] is given as “significantly reduced the time spent into the aversive open arms”. The “number of light/dark transitions” value in the experiment with mice [5] is given as “significantly induced an increase”.

“Gln^1-Arg^28: peptide Gln1-Arg28 of the NTSR3/Sortilin propeptide, from literature”: the “binding activity / affinity for NTSR3/Sortilin” value with NTSR3/Sortilin was “as efficient on the binding activity as the entire propeptide”; in the experiment with NTSR3/Sortilin (listed as Gln^1-Arg^16) it was “very low”.

Regarding “NTSR3/Sortilin (expressed by transfection in COS-7 cells) (from UniProt Q99523 78-831) (receptor)”, in [6], the expression of TREK-1 within the plasma membranes (cell surface biotinylation, Western blot) turned out to be 6 fold and the expression of TREK-1 within the plasma membranes (purified plasma membranes, Western blot) amounted to 3 fold.

As a reminder, the Kd is the concentration at which binding is half-saturated. On to “QDRLDAPPPPAAPLPRWSGPIGVSWGLRAAAAGGAFPRGGRWRR [propeptide, 44 residue N-terminal propeptide released from prosortilin by furin]”, for which the Kd on NTSR3/Sortilin (read-out: Kd for the mature receptor) is approximately 5 nM. Besides, at TREK-1 [7], the “block of aa stimulated TREK-1 current” value worked out at 41±5%.

Take “neurotensin (from UniProt P30990 151-163) (peptide)”: the C13NJ cell migration in wound-healing assay with 10 nM NT (% of migration with 10% FCS) in [8] stood at 35.1%.

In the case of APLPRWSGPIGVSWGLR (also: monoiodinated (125I) on Tyr0, an added N-terminal Tyr not in given chain) [125I-spadin], the share of cell-bound 125I-spadin resistant to the acid-NaCl wash (intracellular) on TREK-1 expressing COS-7 cells at 37° C. in experiment [6] turned out to be 80%.

QDRLDAPPPPAAPLPR [N-terminal fragment Gln1-Arg16 of the full length propeptide] gave an affinity in experiment [9] of 1 µM.
